Assay results published in patent US5475136A, “Inhibitors of HIV protease useful for the treatment of AIDS” (Eli Lilly and Company, priority 1992, dated 1995).

Molecular target: T1, HIV-1 protease (Human immunodeficiency virus type 1 group M subtype B, UniProt P04585)
T1 construct: host or cells: E. coli K12 L507/pHP10D
Assay: biochemical
Settings: read-out: Fluorescence Assay IC50 (converted)
Experimental: Lyophils of E. coli K12 L507/pHP10D were obtained from the Northern Regional Research Laboratory, Peoria, Ill. 61604, under the accession number NRRL B-18560 (deposited Nov. 14, 1989).
A culture of E. coli K12 L507/pHP10D was grown to mid-log phase at 32° C. in LB media containing 12.5 μg/mL tetracycline. The cultivation temperature was quickly elevated to 40° C. to induce gene expression, and the cells were allowed to grow for 2.5 hours at this temperature before the culture was quickly chilled on ice. The cells were centrifuged and the cell pellet was resuspended in 20 mL 50 mmol MES buffer (pH 6.0) containing 1 mmol EDTA, 1 mmol DTT, 1 mmol PMSF and 10% glycerol ("Buffer A"). Cells were lysed by sonication using a Fischer Model 300 Dismembrator and a microtip probe. […] Res. Commun., 167, 554-560 (1990); the production of the pl peptide (SQNY) was measured.
The active fractions were combined, made 1.2M in ammonium sulfate, and applied to a 2.0×18 cm hexyl agarose column that had been equilibrated in Buffer A containing 1.2M ammonium sulfate. The sample was loaded at a flow rate of 1 mL/min at 4° C., washed with the equilibration buffer for 240 min (1 mL/min) and then eluted using a reverse linear gradient of 1.2-0M ammonium sulfate in Buffer A for 120 min at the same flow rate. The column was then washed isocratically in Buffer A for 120 min. […]

Structure (SMILES)	IC50
CC(=O)N[C@@H](CC(N)=O)C(=O)N[C@@H](CSc1ccccc1)[C@H](O)Cc1ccccc1C(=O)NC(C)(C)C (relative stereo) [Example 2, [2'R-(2'R*,3'R*,6'S*)]-N(t-Butyl)-2-[2'-hydroxy-3'-phenylthiomethyl-4',7'-diaza-5',8'-dioxo-6'-(2"-amino-2"-oxoethyl)]nonyl benzamide]	21.2 nM
CC(=O)N[C@@H](CC(N)=O)C(=O)N[C@@H](CSc1ccc2ccccc2c1)[C@H](O)Cc1ccccc1C(=O)NC(C)(C)C (relative stereo) [Example 1, [2'R-(2'R*,3'R*, 6'S*)]-N(t-butyl)-2-[2'-hydroxy-3'-naphth-2-ylthiomethyl-4',7'-diaza-5',8'-dioxo-6'-(2"-amino-2"-oxoethyl)]nonyl benzamide]	1.24 nM
